Measurements from patent US9657324B1, “Method for treating or preventing mood disorders” (VIRUS IKAGAKU KENKYUSHO INC., priority 2008, dated 2017).

Columns and labels:
[1] = test system: HHV-6 variant B HST strain; assay: Expression of SITH-1 in HHV-6-infected U373 cells in the presence of ganciclovir (real-time PCR); type: cell-based, human herpesvirus 6; details: U373 glial cell line infected with HHV-6, one day after infection, relative to ganciclovir (-)
Method: The human glial cell line (U373) was infected with HHV-6 in the presence of ganciclovir, and the amount of SITH-1 expressed in the infected cell line was measured by the real-time PCR technique.
The U373 cells were cultured overnight in the presence of ganciclovir at various concentrations (FIG. 14) and infected with an HHV-6 variant B HST strain, and the amount of SITH-1 that was expressed in cells one day after the infection was measured by the real-time PCR technique.
Since the effective concentration of ganciclovir against HHV-6 variant B is considered to be about 10 μM in terms of IC50, three concentrations were obtained by 3-fold dilutions, with 10 μM in the middle.
The vertical axis of the graph in FIG. 14 plots the relative amount of expression of SITH-1 mRNA, with the value for ganciclovir (-) being taken as unity. […] When ganciclovir was used in the amounts of […], 10 μM and 30 μM, the amount of expression of SITH-1 mRNA was suppressed by about 20%, 40% and more than 80%, respectively.

CAML = assay: Expression of CAML in HHV-6-infected U373 cells in the presence of ganciclovir (indirect fluorescent antibody technique); type: cell-based, human; details: U373 cell line infected with HHV-6, ganciclovir added after infection
Method: The human glial cell line (U373) is infected with HHV-6, and then ganciclovir is added. The amount of CAML expressed in the infected cell line in the presence of ganciclovir is measure by the indirect fluorescent antibody technique.

HHV-6 variant B = details: "is considered to be", read-out: effective concentration against HHV-6 variant B in terms of IC50; cited from earlier work
[2] = test system: HHV-6 or Epstein-Barr virus (EBV); details: patients with encephalitis/encephalopathy-like and long-standing fatigue symptoms, presumably due to HHV-6 or EBV infection; cited from earlier work

Structure (SMILES) | amount of expression of SITH-1 mRNA suppressed ([1]; ganciclovir 3 μM) | amount of expression of SITH-1 mRNA suppressed ([1]; ganciclovir 10 μM) | amount of expression of SITH-1 mRNA suppressed ([1]; ganciclovir 30 μM) | amount of CAML expression (CAML) | IC50 (HHV-6 variant B) | patients who had their symptoms improved [2]
Nc1nc(O)c2ncn(COC(CO)CO)c2n1 [ganciclovir] | about 20% | ~40% | more than 80% | suppressed by ganciclovir in a dose-dependent manner | ~10 µM | –
CC(C)[C@H](N)C(=O)OCC(CO)OCn1cnc2c(=O)nc(N)[nH]c21 (stereo partly drawn) [valganciclovir] | – | – | – | – | – | 75%
